Legend:
[1] = tested on: NF-κB signaling; settings: TNF-α stimulated cells with pSuperBBS4, pSuperBBS1 or pSuperOFD1; SFN 6 hours
Method: (§1) HEK-293 or HEK-293-FT cells and human dermal fibroblasts were grown in DMEM (Invitrogen) containing 10% FBS (Invitrogen) and 2 mM L-glutamine (Invitrogen), hTERT-RPE1 cells in DMEM and Ham's F-12 Nutrient 1:1 mixture (DMEM/F-12; Invitrogen) with 10% FBS and 2 mM L-glutamine.

[2] = tested on: PSMB5, PSMB6, and PSMB7; settings: upon treatment with sulforaphane (ref. 36); cited from earlier work
[3] = tested on: β-catenin; settings: cells depleted of BBS4, relative to vehicle-treated cells; 10 μM SFN
Method: (§2) Transfected cells and mouse tissues were lysed in modified RIPA buffer [150 mM sodium chloride, 50 mM Tris-HCl, pH7.4, 1% nonidet P-40, 0.1% sodium deoxycholate, 1 mM EDTA] with 1× proteasome inhibitor (Roche) and centrifuged at 4° C. for 15 minutes. Protein concentration was measured by Lowry assay using the DC Protein Assay Kit (Bio-Rad) on a DU 530 Life Science UV/Vis Spectrophotometer (Beckman Coulter). Total protein in each sample was separated by SDS-PAGE on 4% to 15% Mini-PROTEAN TGX Precast Gel (Bio-Rad) with a Spectra Multicolor Broad Range Protein Ladder (Fermentas) and transferred to an Immun-Blot PVDF Membrane (Bio-Rad). […] Densitometric analysis was performed with Image Lab (Bio-Rad), Quantity One (Bio-Rad), or ImageJ 1.44p (NIH) software. […]

[4] = tested on: IκBβ; settings: BBS4-, BBS1-, or OFD-suppressant cells
Method: as §2

[5] = tested on: GLI2FL, GLI3FL, SUFU and GLI3R in T8-derived Ofd1^KO neurons; settings: 10 μM SFN
Method: Transfected cells and mouse tissues were lysed in modified RIPA buffer [150 mM sodium chloride, 50 mM Tris-HCl, pH7.4, 1% nonidet P-40, 0.1% sodium deoxycholate, 1 mM EDTA] with 1× proteasome inhibitor (Roche) and centrifuged at 4° C. for 15 minutes. Protein concentration was measured by Lowry assay using the DC Protein Assay Kit (Bio-Rad) on a DU 530 Life Science UV/Vis Spectrophotometer (Beckman Coulter). Total protein in each sample was separated by SDS-PAGE on 4% to 15% Mini-PROTEAN TGX Precast Gel (Bio-Rad) with a Spectra Multicolor Broad Range Protein Ladder (Fermentas) and transferred to an Immun-Blot PVDF Membrane (Bio-Rad). […] Densitometric analysis was performed with Image Lab (Bio-Rad), Quantity One (Bio-Rad), or ImageJ 1.44p (NIH) software.
as §1

[6] = tested on: bbs4, bbs1 and ofd1 morphant zebrafish embryos; experiment: Convergent extension (CE) and somite defects in morphant zebrafish embryos, coinjection; assay type: in vivo; settings: for rescue of defective CE phenotypes, somitic defects, and persistent her4 expression: coinjection
Method: (§3) Morpholinos against bbs1 ([NT] ID NO: 13), bbs4 ([NT] ID NO: 14), and ofd1 ([NT] ID NO: 15) were purchased from Gene Tools, LLC. Human RPN10, RPN13, and RPT6 mRNA were in vitro transcribed with a mMESSAGE mMACHINE SP6 Kit (Ambion). SFN was dissolved in DMSO (Sigma-Aldrich) at a stock concentration of 1 M and further diluted in water to 10 mM. The morpholino and mRNA or SFN were mixed, and a volume of 0.5 nl was microinjected.

[7] = tested on: her4 expression (Notch target) in bbs4 morphant zebrafish embryos; experiment: Whole-mount RNA in situ hybridization of her4 in morphant zebrafish; assay type: in vivo; settings: bbs4 morphants, coinjection, 4.5 dpf
Method: as §3, with “microinjected. Zebrafish embryos were fixed overnight in 4% PFA at 4° C. Residual pigment was removed by bleaching with 3% H2O2/0.5% KOH.” for “microinjected.”

SMILES: C[S@@+]([O-])CCCCN=C=S [SFN, 1-isothiocyanato-4(R)-methylsulfinylbutane]
- NF-κB activity (3X-κB-L luciferase reporter) [1]: restored
- expression levels of PSMB5, PSMB6, and PSMB7 and corresponding peptidase activities [2]: increase
- β-catenin protein levels [3]: reduction
- accumulation of GFP-tagged IκBβ [4]: ameliorated
- GLI3R protein levels [5]: reduced
- accumulation of GLI3FL, GLI2FL, and SUFU [5]: ameliorated
- rescue of defective CE phenotypes, somitic defects, and persistent her4 expression ([6]; bbs1 morphants): robust rescue
- bbs4 morphants with CE and somitic defects ([6]; coinjection with bbs4 morpholino, blind scoring at 9±1 ss): significant reduction
- rescue of defective CE phenotypes, somitic defects, and persistent her4 expression ([6]; ofd1 morphants): robust rescue
- phenotype after injection of the substance alone ([6]; zebrafish embryos, no morpholino): did not give rise to any obvious phenotype
- ectopic expression of her4 in neural structures [7]: ameliorated

Source: US20170016915A1, “SCREENING TARGETS AND COMPOSITIONS AND METHODS FOR TREATMENT OF CILIOPATHY DISORDERS” (Duke University, priority 2014, published 2017)
